{"source": "patent US20250387403A1", "about": "“SELECTIVE SIGMA-2 RECEPTOR LIGANDS AS MODULATORS OF TMEM97” (BOARD OF REGENTS, THE UNIVERSITY OF TEXAS SYSTEM, priority 2022, published 2025)", "key": {"neurite outgrowth": {"system": "neurite outgrowth", "test": "Neurite outgrowth", "format": "cell-based"}, "[1]": {"system": "integrated stress response", "test": "Integrated stress response", "format": "cell-based"}, "[2]": {"system": "spared nerve injury (SNI) model", "test": "Spared nerve injury (SNI) neuropathic pain model", "format": "in vivo, mice"}}}
{"smiles": "OCCCN1CC[C@@H]2C[C@H]1c1cc(-c3ccc(C(F)(F)F)cc3)ccc12", "note": "[FEM-1689, 3-((1S,5R)-8-(4-(Trifluoromethyl)phenyl)-1,3,4,5-tetrahydro-2H-1,5-methanobenzo[c]azepin-2-yl) propan-1-ol]", "values": [{"measurement": "effect on neurite outgrowth", "setting": "neurite outgrowth", "result": "promotes neurite outgrowth"}, {"measurement": "effect on the integrated stress response", "setting": "[1]", "result": "inhibits the integrated stress response"}, {"measurement": "analgesic effect after SNI", "setting": "[2]; global σ2R/TMEM97 knockout mouse", "result": "fails to produce an analgesic effect"}, {"measurement": "mechanical hypersensitivity after SNI", "setting": "[2]; wild-type male and female mice", "result": "reverses mechanical hypersensitivity"}]}
